Results: patent US6399580B1, “Methods and compositions for stimulating tissue growth and epithelial moisturization” (The Regents of the University of California, priority 1994, dated 2002)

What was measured:
Type in all cases: in vivo
[1] = system: intact hairless mouse skin; experiment: Transepidermal water loss after topical application; settings: BrCBE 325 nmol topical once daily, after four daily applications
Procedure: (§1) To determine whether inhibitors of β-glucocerebrosidase would cause more profound effects than applications of exogenous GlcCER alone (examples 5&6), we next applied the specific, suicide inhibitor, bromoconduritol-B-epoxide (BrCBE) to intact hairless mouse skin (Simonsen Laboratories, Gilroy, Calif.) (Holleran, W. M. et al., J. Clin. Invest. (1993) 91:1656-1664). BrCBE (325 nmol in 20 μl propylene glycol:ethanol, 7:3 vols) was applied once daily for 0-14 days. (Holleran, W. M. et al. (1994) J. Clin. Inv. 93:1756-1764)
Transepidermal Water Loss was determined by using a MEECO electrolytic water analyzer (MEECO, Warrington, Pa.). Water loss measurements are recorded over a small area of skin (0.5cm^2) in parts per million/0.5cm^2 per hour over background.

[2] = biological target: T1, β-glucocerebrosidase (Mus musculus, UniProt P17439); experiment: Epidermal β-glucocerebrosidase activity after topical BrCBE; settings: topical BrCBE 325 nmol once daily
T1 construct: from tissue; host or cells: epidermis of hairless mice (Simonsen Laboratories, Gilroy, Calif.)
T1 sequence (P17439 20-515): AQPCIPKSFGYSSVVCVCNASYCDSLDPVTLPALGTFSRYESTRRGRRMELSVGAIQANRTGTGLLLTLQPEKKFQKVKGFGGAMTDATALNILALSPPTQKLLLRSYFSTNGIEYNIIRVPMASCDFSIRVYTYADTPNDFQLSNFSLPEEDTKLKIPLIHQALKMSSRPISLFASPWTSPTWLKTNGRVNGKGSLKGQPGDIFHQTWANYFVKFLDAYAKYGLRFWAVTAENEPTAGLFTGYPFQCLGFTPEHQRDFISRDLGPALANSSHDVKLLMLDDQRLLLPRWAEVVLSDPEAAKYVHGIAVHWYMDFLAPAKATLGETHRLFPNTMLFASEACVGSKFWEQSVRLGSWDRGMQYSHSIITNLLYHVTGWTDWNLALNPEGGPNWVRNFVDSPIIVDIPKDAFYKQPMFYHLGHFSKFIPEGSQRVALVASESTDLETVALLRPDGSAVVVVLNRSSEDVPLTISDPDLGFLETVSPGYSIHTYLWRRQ
Procedure: as §1

[3] = system: hairless mouse epidermis; experiment: Epidermal / stratum corneum lipid content (HPTLC/TLC)
Procedure: Hairless mice were treated with BrCBE for 5 days as described in Example 10. The following high performance thin layer chromatograph (HPTLC) system was developed for optimal separation of ceramides and glucosylceramides for quantitation by spectrodensitometry. Extracts were applied to precleaned 10 ×20 cm HPTLC plates, 0.5 cm from lower edge of the plate and fractionated sequentially in a horizontal developmental chamber (Camag, Muttenz, Switzerland) in the following solvent systems: 1) chloroform:methanol:acetic acid (190:9:1), v/v/v) to the top, twice; 2) chloroform:methanol:acetone (76:20:4, by volume) to 30 mm. Between each development, the plate was dried for 5 minutes on a hot plate (40° C.), cooled for 2 minutes, and equilibrated in the tank with the solvents for 3 minutes. After final development, the plates were dried, cooled, dipped in charring solution (1.5% cupric sulfate in acetic acid:sulfuric acid:orthophosphoric acid:water (50:10:10:30, by volume) for 15 seconds, dried (40° .C) for 5 minutes, and then charred at 180° C. for 15 minutes. Plates were scanned with a variable wavelength scanning densitometer (Camag, Muttenz, Switzerland). Lipid amounts for each fraction were estimated using ceramides 3 and 4, and galactosylceramides 1 and 2 as reference standards (Sigma Chemical Co., St. Louis, Mo.).
The epidermal glucosylceramide content was determined in mice treated with the topical β-glucocerebrosidase inhibitors. Mice were treated with CBE for one day as described in FIG. 22. The mice were sacrificed and whole skin was excised. Subcutaneous fascia and fat were scraped off, and the samples were placed dermis side down onto […] EDTA in PBS-CMF (pH 7.4) and incubated at 37° C. for 40 min. Skin was blotted dry with a tissue and the epidermis was removed by scraping with a surgical blade. The epidermis was minced, placed into microcentrifuge vials, immediately snap frozen and stored in liquid N2 until extracted.
For extraction the tissue was soaked in 7.6 ml Bligh/Dyer extraction media (2 ml chloroform, 4 ml Methanol, 1.6 ml H2O) overnight at room temperature. The following day the tissue was shaken for 20 min. and centrifuged for 10 min. the solvent was removed and the pellet was combined with 7.6 ml Bligh/Dyer media and again shaken and centrifuged. The solvents were combined with solvent from the soaks and filtered through pre-solvent-washed Whatman 43 filter paper, 2 ml chloroform and 2 ml H2O was added to each 7.6 ml quantity of the filtrate and shaken for 10 min. The samples were then centrifuged and the upper phase discarded. The lower phase was washed with 4 ml chloroform, 4 ml MetOH, and 3.6 ml H2O (shaken for 10 min and centrifuged). The upper phase was discarded. The lower phase was dried under N2 in a 47° C. water bath. The lipid was resuspended in chloroform and weighed on the Cahn balance.
TLC was performed using 15-20 μg samples and quantitated against standard glycosylceramide and 40 μg sample for sphingolipids (Holleran, W. M. et al. (1993) J. Clin. Invest. 91:1656-1664).
Both glucosylceramide and ceramide content was then determined in lower (stratum basale) and upper (stratum spinosum, stratum granulosum and stratum corneum) epidermis (FIG. 23). Following 24 hours of CBE treatment samples were excised following treatment (as in Example 16).

[4] = system: hairless mouse skin; experiment: Appearance and texture of treated skin
Procedure: as §1

[5] = BrCBE 325 nmol/5cm^2/day, five days

epidermal β-glucocerebrosidase activity, of normal [2]: 5 % of normal | reduction of epidermal β-glucocerebrosidase activity [2]: about 95% | inflammation or edema ([4]; BrCBE-treated skin): no indication of inflammation or edema
SMILES: OC1C(O)C(Br)C2OC2C1O (stereo not shown) [BrCBE, bromoconduritol-B-epoxide]
TEWL plateau level (defect in permeability barrier function) [1]: 10-15 times normal | ceramide content, whole epidermis lipid extracts [3, 5]: decrease | epidermal glucosylceramides, whole epidermis lipid extracts [3, 5]: increased | increase in stratum corneum glucosylceramides ([3]; BrCBE 5 days, vs vehicle-treated and/or untreated murine stratum corneum, FIG. 14): eight to ten | skin moisture content ([4]; BrCBE-treated skin): increased moisture content | skin smoothness and softening of skin surface ([4]; BrCBE-treated skin): marked increase | skin wrinkling ([4]; BrCBE-treated vs vehicle-treated skin, visual inspection): reduced
